Measured values as given in patent US9193722B2, “Tri-cyclic pyrazolopyridine kinase inhibitors” (Vertex Pharmaceuticals Incorporated, priority 2008, dated 2015).
pKi: −log10 of the molar value.

Columns and labels:
Assay type in all cases: biochemical
PKC theta kinase = PKC theta kinase (Homo sapiens, UniProt Q04759); assay: PKC theta kinase inhibition, coupled-enzyme (NADH absorbance) assay, Ki; settings: 240 μM ATP, 18 nM PKC theta kinase, 30° C.
In short: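 Enzyme and compound equilibrated 10 min at 30 °C before reaction in HEPES pH 7.5 buffer with MgCl2, NaCl, EDTA and Brij. Activity tracked as NADH loss at 340 nm through a coupled system. Initial-rate data fitted by non-linear regression to give Ki.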

PKC delta kinase = PKC delta kinase (Homo sapiens, UniProt Q05655); assay: PKC delta kinase inhibition, coupled-enzyme (NADH absorbance) assay, Ki; settings: 150 μM ATP, 46 nM PKC delta kinase, 30° C.; read-out: Ki PKC delta
Chain of PKC delta kinase (Q05655 whole entry): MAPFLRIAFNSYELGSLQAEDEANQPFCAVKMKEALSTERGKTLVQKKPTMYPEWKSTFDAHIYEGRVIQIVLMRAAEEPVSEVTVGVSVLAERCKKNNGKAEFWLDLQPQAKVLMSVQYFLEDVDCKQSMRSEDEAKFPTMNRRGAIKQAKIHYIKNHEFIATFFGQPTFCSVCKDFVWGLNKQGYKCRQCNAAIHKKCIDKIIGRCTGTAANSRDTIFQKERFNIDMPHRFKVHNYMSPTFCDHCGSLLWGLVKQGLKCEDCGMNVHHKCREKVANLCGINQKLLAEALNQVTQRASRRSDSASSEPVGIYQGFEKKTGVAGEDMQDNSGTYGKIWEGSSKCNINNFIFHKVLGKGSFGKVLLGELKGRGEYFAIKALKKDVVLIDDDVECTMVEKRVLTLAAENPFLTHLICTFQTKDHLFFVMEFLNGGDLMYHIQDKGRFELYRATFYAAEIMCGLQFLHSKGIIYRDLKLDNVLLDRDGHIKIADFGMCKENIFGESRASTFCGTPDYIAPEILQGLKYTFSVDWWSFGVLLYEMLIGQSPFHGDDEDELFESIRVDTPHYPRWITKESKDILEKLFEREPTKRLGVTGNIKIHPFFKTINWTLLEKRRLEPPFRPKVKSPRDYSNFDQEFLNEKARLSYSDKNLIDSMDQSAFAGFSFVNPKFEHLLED
In short: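 Enzyme and compound pre-equilibrated 10 min at 30° C before adding ATP to 150 μM final. Buffer: HEPES pH 7.5 (100 mM), 10 mM MgCl2, 25 mM NaCl, 0.1 mM EDTA, 0.01% Brij.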

PKC alpha kinase = PKC alpha kinase (Homo sapiens, UniProt P17252); assay: PKC alpha kinase inhibition, coupled-enzyme (NADH absorbance) assay, Ki; settings: 130 μM ATP, 4.5 nM PKC alpha kinase, 30° C.
In short: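 Ki derived by non-linear regression of initial rates from a coupled assay tracking NADH absorbance at 340 nm over 15 min at 30 °C. ATP was 130 μM final after a 10 min compound–enzyme preincubation in HEPES pH 7.5 buffer with MgCl2, CaCl2, NaCl, EDTA and Brij.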

Chain of PKC theta kinase (Q04759 whole entry): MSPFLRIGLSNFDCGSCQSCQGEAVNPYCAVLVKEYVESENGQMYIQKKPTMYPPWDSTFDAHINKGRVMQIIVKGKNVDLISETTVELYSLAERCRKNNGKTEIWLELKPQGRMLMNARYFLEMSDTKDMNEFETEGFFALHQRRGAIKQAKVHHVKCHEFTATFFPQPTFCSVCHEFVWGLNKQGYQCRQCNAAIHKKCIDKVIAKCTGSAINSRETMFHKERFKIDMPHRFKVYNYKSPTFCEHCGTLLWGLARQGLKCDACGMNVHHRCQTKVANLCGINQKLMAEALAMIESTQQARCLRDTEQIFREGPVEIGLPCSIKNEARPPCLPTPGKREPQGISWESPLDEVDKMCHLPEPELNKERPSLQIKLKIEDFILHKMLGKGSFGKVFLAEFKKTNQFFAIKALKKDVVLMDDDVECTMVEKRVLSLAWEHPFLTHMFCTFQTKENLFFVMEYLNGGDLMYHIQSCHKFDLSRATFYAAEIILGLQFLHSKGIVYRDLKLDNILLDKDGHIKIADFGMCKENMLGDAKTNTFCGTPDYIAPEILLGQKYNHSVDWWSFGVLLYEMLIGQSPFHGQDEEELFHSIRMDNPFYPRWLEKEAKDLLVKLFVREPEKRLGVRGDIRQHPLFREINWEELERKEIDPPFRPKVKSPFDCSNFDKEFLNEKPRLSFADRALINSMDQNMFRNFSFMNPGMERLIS

FC(F)(F)c1ccc(N2CCC(Nc3ccccc3)CC2)nc1-c1n[nH]c2ncccc12 [Compound 358]
pKi (PKC theta kinase): < 6.15 | pKi (PKC delta kinase): < 5.90 | pKi (PKC alpha kinase): < 5.90

C=C(F)c1cc(-c2n[nH]c3ncccc23)nc(N2CCN[C@@H](CC(C)C)C2)c1 [Compound 55]
pKi (PKC theta kinase): > 7.30 | pKi (PKC delta kinase): > 5.55 | pKi (PKC alpha kinase): < 5.90

NC1(C2CCCN(c3ccc(F)c(-c4n[nH]c5ncccc45)n3)C2)CCC1 (stereo not drawn) [Compound 324]
pKi (PKC theta kinase): > 7.30 | pKi (PKC delta kinase): > 7.30 | pKi (PKC alpha kinase): > 5.55

CCC1(CC)CN(c2ccc(C(F)(F)F)c(-c3n[nH]c4ncccc34)n2)CCC1N (stereo not drawn) [Compound 427]
pKi (PKC theta kinase): > 7.30 | pKi (PKC delta kinase): > 6.30 | pKi (PKC alpha kinase): < 5.90

FC(F)(F)CC1CN(c2cccc(-c3n[nH]c4ncccc34)n2)CCN1 (stereo not drawn) [Compound 28]
pKi (PKC theta kinase): > 7.30 | pKi (PKC delta kinase): > 6.30 | pKi (PKC alpha kinase): > 5.55

CC(C)(C)CC(N)C1CCCN(c2ccc(F)c(-c3n[nH]c4ncccc34)n2)C1 (stereo not drawn) [Compound 317]
pKi (PKC theta kinase): > 7.30 | pKi (PKC delta kinase): < 5.90 | pKi (PKC alpha kinase): < 5.90

CNC1CCN(c2ccc(F)c(-c3n[nH]c4ncccc34)n2)CC1 [Compound 369]
pKi (PKC theta kinase): > 6.30 | pKi (PKC delta kinase): < 5.90 | pKi (PKC alpha kinase): < 5.90

NC(=O)C1(N2CCCCC2)CCN(c2ccc(C(F)(F)F)c(-c3n[nH]c4ncccc34)n2)CC1 [Compound 259]
pKi (PKC theta kinase): < 6.15 | pKi (PKC delta kinase): < 5.90 | pKi (PKC alpha kinase): < 5.90

CC(C)C[C@@H]1CC(O)(c2cccc(-c3n[nH]c4ncccc34)n2)CCN1 (stereo partly drawn) [Compound 73]
pKi (PKC theta kinase): < 6.15 | pKi (PKC delta kinase): < 5.70 | pKi (PKC alpha kinase): < 5.90

CC(C)CC(N)C1CCCN(c2ccc(F)c(-c3n[nH]c4ncccc34)n2)C1 (stereo not drawn) [Compound 299]
pKi (PKC theta kinase): > 7.30 | pKi (PKC delta kinase): > 5.55 | pKi (PKC alpha kinase): < 5.90

CCOC[C@H]1CN(c2cccc(-c3n[nH]c4ncccc34)n2)CCN1 [Compound 147]
pKi (PKC theta kinase): > 6.30 | pKi (PKC delta kinase): < 5.90 | pKi (PKC alpha kinase): < 5.90

Cc1cc(N2CCN[C@@H](CC(C)C)C2)nc(-c2n[nH]c3ncccc23)c1Cl [Compound 58]
pKi (PKC theta kinase): > 6.30 | pKi (PKC delta kinase): > 5.55 | pKi (PKC alpha kinase): < 5.90

NCC1CN(c2ccc(F)c(-c3n[nH]c4ncccc34)n2)CCC1O (stereo not drawn) [Compound 296]
pKi (PKC theta kinase): > 6.30 | pKi (PKC delta kinase): > 5.55 | pKi (PKC alpha kinase): < 5.90

CC(F)(F)C(C)(O)C1CN(c2ccc(F)c(-c3n[nH]c4ncccc34)n2)CCN1 (stereo not drawn) [Compound 282]
pKi (PKC theta kinase): > 7.30 | pKi (PKC delta kinase): > 5.55 | pKi (PKC alpha kinase): < 5.90

CC(C)C(O)[C@@H]1CCCN(c2ccc(F)c(-c3n[nH]c4ncccc34)n2)C1 (stereo partly drawn) [Compound 278]
pKi (PKC theta kinase): > 6.30 | pKi (PKC delta kinase): < 5.90 | pKi (PKC alpha kinase): < 5.90

CC(C)C(C)(O)[C@H]1CCCN(c2ccc(F)c(-c3n[nH]c4ncccc34)n2)C1 (stereo partly drawn) [Compound 277]
pKi (PKC theta kinase): > 6.30 | pKi (PKC delta kinase): < 5.90 | pKi (PKC alpha kinase): < 5.90

NC[C@@H]1CCN(c2ccc(F)c(-c3n[nH]c4ncccc34)n2)C1 [Compound 357]
pKi (PKC theta kinase): > 6.30 | pKi (PKC delta kinase): < 5.90 | pKi (PKC alpha kinase): < 5.90

c1ccc(C[C@H]2CN(c3cccc(-c4n[nH]c5ncccc45)n3)CCN2)cc1 [Compound 37]
pKi (PKC theta kinase): > 7.30 | pKi (PKC delta kinase): > 5.55 | pKi (PKC alpha kinase): < 5.90

CC(C)C[C@@]1(F)CN(c2ccc(C(F)(F)F)c(-c3n[nH]c4ncccc34)n2)CC[C@H]1O [Compound 198]
pKi (PKC theta kinase): > 6.30 | pKi (PKC delta kinase): < 5.90 | pKi (PKC alpha kinase): < 5.90

CC(C)CC1(O)CN(c2ccc(C(F)(F)F)c(-c3n[nH]c4ncccc34)n2)CCC1C#N (stereo not drawn) [Compound 401]
pKi (PKC theta kinase): > 7.30 | pKi (PKC delta kinase): > 5.55 | pKi (PKC alpha kinase): < 5.90

CC(C)C[C@@H]1C[C@H](N)CN(c2ccc(C(F)(F)F)c(-c3n[nH]c4ncccc34)n2)C1 [Compound 364]
pKi (PKC theta kinase): > 6.30 | pKi (PKC delta kinase): < 5.90 | pKi (PKC alpha kinase): < 5.90
